Assay [1] has as its system ICAM-1 expressed on HUVEC. As to the kind of experiment: Test about suppression of ICAM-1 expression (enzyme immuno assay, EIA), TNF-α-stimulated HUVEC. The format is cell-based. The settings on record: Homo sapiens, TNF-α 0.3 ng/ml. As to the method: Using a culture broth containing serum for vascular endothelial cell (manufactured by Nissui Pharmaceutical Co., Ltd.) as a culture medium, HUVEC (umbilical vein endothelial cell manufactured by Morinaga Bioscience Institute) was cultured in a collagen-treated flask by the routine method.
For carrying out a test about the suppression of ICAM-1 expression with HUVEC, a collagen-treated 96-well plate was used, where HUVEC was added at 1 to 2×10^4 cells/well while the culture medium was added at 100 to 200 μl/well. The cell was cultured in 5% CO2 at 37° C. for 48 to 72 hours. Before adding a test solution, the culture medium (80 μl) was exchanged, to which 10 μl of a test solution preliminarily diluted was then added. The plate was allowed to stand alone in a CO2 incubator. 2 hours later, 10 μl of TNF-α (recombinant human TNF-α, manufactured by Genzyme) was added (to a final concentration of 0.3 ng/ml). The resulting plate was again allowed to stand alone in the CO2 incubator. 16 to 22 hours later, the cell was fixed with 1% p-formaldehyde solution. The cell was rinsed with a phosphate buffer containing Ca^2+ and Mg^2+, which was then treated with an anti-human ICAM-1 antibody (mouse IgG1, manufactured by Kyowa Medics) at ambient temperature for 30 minutes. After the cell was rinsed again with the phosphate buffer, the cell was treated with a peroxide-labeled anti-mouse IgG (H+L) (manufactured by Organon Teknik Corp.) for another 30 minutes. After the cell was again rinsed with the phosphate buffer, the color developed was measured, using a peroxidase chromogenic kit (manufactured by Sumitomo Bakelite Co., Ltd.), to determine ICAM-1 expressed on HUVEC as an expression-inhibiting ratio (%) to a non-drug group to calculate the IC50 value.

For assay [2], the system named is footpad thickness, MeHSA-sensitized C57BL/6 mouse. Kind of assay: Methylated human serum albumin-induced delayed hypersensitivity test (MeHSA-DTH). The format is in vivo. The settings on record: oral, twice, footpad thickness 24 hours after induction. Here is the method:
Methylated human serum albumin (MeHSA) was dissolved in physiological saline to 5 mg/ml, which was then mixed with an equal volume of the complete Freund's adjuvant (manufactured by Iatron), to prepare an emulsion. Next, 100 μl of the prepared emulsion was injected subcutaneously into a 8-week-old male C57BL/6 mouse, for antigen sensitization. Seven days thereafter, MeHSA was dissolved in physiological saline to 1 mg/ml, which was injected at 25 μl subcutaneously into the footpad of the right hind limb, to trigger a reaction. The thickness of the footpad was measured 24 hours after the induction of the reaction, to calculate the difference from the thickness thereof before the induction of the reaction, to make an assessment. Additionally, drugs were orally given twice, namely one hour before the induction of the reaction and 16 hours after the induction thereof.

Assay [3] deals with collagen-induced arthritis, DBA/1J mouse. Kind of assay: Test using collagen arthritis model in mouse. The format is in vivo. The settings on record: 30 mg/kg, oral daily after secondary sensitization, two weeks after secondary sensitization, non-drug group 5.7. As to the method:
Type II collagen derived from bovine joint was dissolved in 0.1 M acetate saline to 2 mg/ml, with which an equal volume of the complete Freund's adjuvant (manufactured by Iatron) was mixed, to prepare an emulsion. For primary sensitization, the emulsion was injected intracutaneously into the tail root of a 8-week-old male DBA/1J mouse. Twenty-one days thereafter, 0.1 ml of an emulsion prepared in the same manner was intracutaneously injected into the dorsal part of the mouse, for secondary sensitization, to trigger the onset of arthritis. Two weeks after the secondary sensitization, the symptoms of arthritis were visually observed (0: normal; 1: swelling and reddening of finger tips; 2: mild swelling and reddening of parts distal from joints of hands and foots; 3: severe swelling and reddening of parts distal from joints of hands and foots). The symptoms of arthritis were observed individually over the four limbs. The total was defined as the arthritis score of an individual. Further, a test drugs was suspended in 0.5% methyl cellulose and orally given daily after the secondary sensitization.

The subject of assay [4] is A549 (human lung cancer cell). Kind of assay: Test about the suppression of cell growth (MTT). The format is cell-based. The settings on record: 72 h, A549, 3 days. Here is the method:
(§1) Various cancer cells and normal cell as cultured in a culture broth to 70 to 90% confluency were used. After the culture broth was removed, 0.25% trypsin/1 mM-EDTA solution was added to scrape off the cells and count the cells. Then, a cell suspension of 5×10^4 cells/ml was prepared. The suspension was divided at 90 μl/well into a 96-well plate, and allowed to stand alone in a CO2 incubator. On the next day, (a 0 to 10 μM test drug (the compound of Example 5) was added at 10 μl/well, for gentle shaking for sufficiently mixing the test drug with the liquid culture. After culturing for 3 days, each 10-μl portion of aqueous 5 mg/ml MTT (3-(4,5-dimethylthiazol-2-yl)-2,5-diphenyltetrazolium bromide) solution was added. After culturing in the CO2 incubator for another 4 hours, 100 μl of a 2-propanol solution containing 0.04N hydrochloric acid was added to each well, for terminating the reaction. The generated MTT formazan was sufficiently dissolved with a multi-channel pipette, to measure the absorbance at 595 nm, using a control wavelength of 655 nm. The measured absorbance was analyzed by non-linear regression analysis using a model formula by the MTT method, to calculate the concentration at which the cell growth was inhibited by 50% (IC50). The cells used at this test and the culture broths therefor are as shown below. • 1) Cell: A549 (human lung cancer cell, Human Science Foundation) • Culture broth: DMEM (Dulbecco's modified Eagle medium)+10% FBS (fetal bovine serum) • 2) Cell: PC-3 (human prostate cancer cell, ATCC) • Culture broth: DMEM+10% FBS • 3) Cell: AsPC-1 (human pancreas cancer cell, Tokyo University) • Culture broth: DMEM+10% FBS • 4) Cell: HT-1080 (human fibrosarcoma cell, ATCC) • Culture broth: DMEM+10% FBS • 5) Cell: Hepatocyte (normal human liver cell, ACRBI) • Culture broth: CS-C (Cell Systems) • 6) Cell: NHDF (normal human fibroblast cell, Kurabo) • Culture broth: DMEM+10% FBS • 7) Cell: BAE (normal bovine aorta vascular endothelial cell, ACRBI) • Culture broth: CS-C (Cell systems)

The subject of assay [5] is AsPC-1 (human pancreas cancer cell). Kind of assay: Test about the suppression of cell growth (MTT). The format is cell-based. The settings on record: ASPC1, 72 h, AsPC-1, 3 days. As to the method:
as §1

Assay [6] has as its system BAE (normal bovine aorta vascular endothelial cell). Kind of assay: Test about the suppression of cell growth (MTT). The format is cell-based. The note with it: Bos taurus, 72 h, 3 days. As to the method:
as §1

Assay [7] relates to HT-1080 (human fibrosarcoma cell). As to the kind of experiment: Test about the suppression of cell growth (MTT). The format is cell-based. The note with it: 72 h, HT-1080, 3 days. Here is the method: as §1
Assay [8] deals with Hepatocyte (normal human liver cell). As to the kind of experiment: Test about the suppression of cell growth (MTT). The format is cell-based. The note with it: 72 h, 3 days. As to the method:
as §1

Assay [9] has as its system NHDF (normal human fibroblast cell). As to the kind of experiment: Test about the suppression of cell growth (MTT). The format is cell-based. The note with it: 72 h, 3 days. As to the method:
as §1

For assay [10], the system named is PC-3 (human prostate cancer cell). As to the kind of experiment: Test about the suppression of cell growth (MTT). The format is cell-based. The note with it: 72 h, PC-3, 3 days. As to the method: as §1

Marks after values point to notes of the source that are not given here.

As to `C/C(=C\C=C\[C@@H]1[C@H]2[C@H](C)[C@@H](O)[C@H](C)C[C@@H]2C=C[C@@H]1C)C(=O)NCc1cccnc1` [Example 5, N-(Pyridin-3-ylmethyl)-(2E,4E)-5-[(1S,2S,4aR,6R,7S,8S,8aS)-7-hydroxy-2,6,8-trimethyl-1,2,4a,5,6,7,8,8a-octahydronaphthalen-1-yl]-2-methylpenta-2,4-dienamide], the IC50 in [1] was 170 nM; in assay [4], 85 nM; in assay [5], 113 nM; in assay [6], 9400 nM; in [7] it was 70 nM; in assay [8], 430 nM. Moreover, the IC50 in assay [9] is 600 nM; in [10], 67 nM. Moreover, the “Suppression ratio (%)” value in assay [2] (10 mg/kg) is 27.5* %; in [2] (30 mg/kg), 51.5** %. Moreover, the Arthritis score in assay [3] is reported as 2.1*.
